Data: US10285989B2, “Pyrimidinone amide compounds as PDE2 inhibitors” (Merck Sharp & Dohme Corp., priority 2015, dated 2019)
Like-named read-outs stand apart in the source and are kept apart here.

What was measured:
[1] = molecular target: Rhesus PDE2A3 (Macaca mulatta, UniProt B3VTJ2); assay: PDE2 fluorescence polarization (IMAP FP) inhibition assay, rhesus PDE2A3; format: biochemical, rhesus macaque
[2] = molecular target: P-glycoprotein (P-gp) (Homo sapiens (Human), UniProt P08183); assay: P-gp transport, experimental BA/AB ratio, human; format: in vitro ADME; conditions: LLC-PK1, 1 μM substrate concentration
Description: (§1) See Doan et al. “Passive permeability and P-glycoprotein-mediated efflux differentiate central nervous system (CNS) and non-CNS marketed drugs”, J. Pharm. Exper. […] Desirable human BA/AB ratio is less than 2.0. […] See, for example, Desai, et al. Integration of in Silico and in Vitro Tools for Scaffold Optimization during Drug Discovery: Predicting P-glycoprotein Efflux” Mol. Pharmac.

[3] = molecular target: P-glycoprotein (P-gp, rat Mdr1a) (Rattus norvegicus, UniProt Q6PSM0); assay: P-gp transport, experimental BA/AB ratio, rat LLC-Mdr1a; format: in vitro ADME; conditions: LLC-PK1; rat LLC-Mdrla; 1 μM substrate concentration
Description: as §1

[4] = molecular target: human PDE2A1 (Homo sapiens (Human), UniProt O00408); assay: PDE2 IMAP FP inhibition assay, human PDE2A1 (selectivity panel format); format: biochemical
In short: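 Enzyme dosed to give about 20% substrate turnover acts for 60 min at room temperature on 50 nM FAM-cAMP plus 1000 nM cGMP (Tris pH 7.2, MgCl2, DTT, Tween-20 buffer). IMAP binding solution then stops the reaction; after 1 h, polarization is measured from parallel and perpendicular fluorescence.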

[5] = Lab A, read-out: Rhesus PDE2 Ki (nM) - Lab A
[6] = Lab B, read-out: Rhesus PDE2 Ki (nM) - Lab B
[7] = Lab B, read-out: Human PDE2 Ki (nM) - Lab B
[8] = Lab A, read-out: Human PDE2 Ki (nM) - Lab A

Sequence of Rhesus PDE2A3 (B3VTJ2 1-941): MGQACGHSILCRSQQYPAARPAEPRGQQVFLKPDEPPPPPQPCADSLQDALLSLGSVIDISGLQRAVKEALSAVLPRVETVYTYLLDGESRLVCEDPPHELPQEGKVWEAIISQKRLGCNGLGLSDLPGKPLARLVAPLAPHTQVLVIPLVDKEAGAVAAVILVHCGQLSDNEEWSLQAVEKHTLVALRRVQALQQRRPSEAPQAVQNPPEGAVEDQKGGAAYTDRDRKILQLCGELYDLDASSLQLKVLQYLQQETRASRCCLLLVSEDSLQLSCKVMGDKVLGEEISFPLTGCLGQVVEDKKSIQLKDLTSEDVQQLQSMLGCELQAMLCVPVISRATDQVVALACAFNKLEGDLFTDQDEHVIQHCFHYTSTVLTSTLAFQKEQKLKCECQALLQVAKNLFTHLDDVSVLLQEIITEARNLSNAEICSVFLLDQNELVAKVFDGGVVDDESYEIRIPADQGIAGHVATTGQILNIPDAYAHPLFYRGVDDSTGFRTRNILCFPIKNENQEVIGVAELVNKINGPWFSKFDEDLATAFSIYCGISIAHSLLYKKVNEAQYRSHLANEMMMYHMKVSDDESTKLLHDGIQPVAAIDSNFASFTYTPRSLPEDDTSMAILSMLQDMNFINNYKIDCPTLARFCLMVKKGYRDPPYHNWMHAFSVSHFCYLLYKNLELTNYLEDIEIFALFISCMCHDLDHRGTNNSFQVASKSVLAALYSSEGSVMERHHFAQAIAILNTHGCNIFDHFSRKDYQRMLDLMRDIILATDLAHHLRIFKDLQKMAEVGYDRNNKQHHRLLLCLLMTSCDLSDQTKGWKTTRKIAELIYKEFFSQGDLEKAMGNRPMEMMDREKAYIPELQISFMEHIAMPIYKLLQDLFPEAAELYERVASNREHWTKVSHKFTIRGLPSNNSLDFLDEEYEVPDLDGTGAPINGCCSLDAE
Sequence of human PDE2A1 (O00408 other isoform, or with tags, fused parts or gaps): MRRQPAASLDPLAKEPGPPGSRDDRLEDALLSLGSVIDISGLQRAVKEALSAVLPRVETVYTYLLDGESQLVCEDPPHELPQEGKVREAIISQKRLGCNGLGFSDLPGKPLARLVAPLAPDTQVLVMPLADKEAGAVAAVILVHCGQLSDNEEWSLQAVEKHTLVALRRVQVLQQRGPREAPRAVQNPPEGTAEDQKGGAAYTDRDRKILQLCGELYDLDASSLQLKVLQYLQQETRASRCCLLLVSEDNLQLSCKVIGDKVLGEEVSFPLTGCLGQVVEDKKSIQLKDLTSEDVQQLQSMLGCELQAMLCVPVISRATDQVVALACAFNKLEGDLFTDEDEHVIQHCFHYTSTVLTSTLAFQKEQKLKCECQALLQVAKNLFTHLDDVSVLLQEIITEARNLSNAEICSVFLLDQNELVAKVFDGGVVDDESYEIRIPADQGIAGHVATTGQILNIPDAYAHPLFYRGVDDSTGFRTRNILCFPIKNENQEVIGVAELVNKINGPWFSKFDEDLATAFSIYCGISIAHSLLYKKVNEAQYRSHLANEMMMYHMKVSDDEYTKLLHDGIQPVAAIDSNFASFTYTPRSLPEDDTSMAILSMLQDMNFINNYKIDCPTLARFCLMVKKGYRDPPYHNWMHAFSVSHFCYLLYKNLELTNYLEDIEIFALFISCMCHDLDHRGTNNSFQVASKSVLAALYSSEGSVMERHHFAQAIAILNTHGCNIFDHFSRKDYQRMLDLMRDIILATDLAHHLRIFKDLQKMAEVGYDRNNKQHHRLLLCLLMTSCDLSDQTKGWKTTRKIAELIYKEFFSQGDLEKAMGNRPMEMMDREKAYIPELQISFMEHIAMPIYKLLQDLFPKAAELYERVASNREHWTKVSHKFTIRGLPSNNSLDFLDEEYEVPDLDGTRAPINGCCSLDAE
Sequence of P-glycoprotein (P-gp) (P08183 whole entry): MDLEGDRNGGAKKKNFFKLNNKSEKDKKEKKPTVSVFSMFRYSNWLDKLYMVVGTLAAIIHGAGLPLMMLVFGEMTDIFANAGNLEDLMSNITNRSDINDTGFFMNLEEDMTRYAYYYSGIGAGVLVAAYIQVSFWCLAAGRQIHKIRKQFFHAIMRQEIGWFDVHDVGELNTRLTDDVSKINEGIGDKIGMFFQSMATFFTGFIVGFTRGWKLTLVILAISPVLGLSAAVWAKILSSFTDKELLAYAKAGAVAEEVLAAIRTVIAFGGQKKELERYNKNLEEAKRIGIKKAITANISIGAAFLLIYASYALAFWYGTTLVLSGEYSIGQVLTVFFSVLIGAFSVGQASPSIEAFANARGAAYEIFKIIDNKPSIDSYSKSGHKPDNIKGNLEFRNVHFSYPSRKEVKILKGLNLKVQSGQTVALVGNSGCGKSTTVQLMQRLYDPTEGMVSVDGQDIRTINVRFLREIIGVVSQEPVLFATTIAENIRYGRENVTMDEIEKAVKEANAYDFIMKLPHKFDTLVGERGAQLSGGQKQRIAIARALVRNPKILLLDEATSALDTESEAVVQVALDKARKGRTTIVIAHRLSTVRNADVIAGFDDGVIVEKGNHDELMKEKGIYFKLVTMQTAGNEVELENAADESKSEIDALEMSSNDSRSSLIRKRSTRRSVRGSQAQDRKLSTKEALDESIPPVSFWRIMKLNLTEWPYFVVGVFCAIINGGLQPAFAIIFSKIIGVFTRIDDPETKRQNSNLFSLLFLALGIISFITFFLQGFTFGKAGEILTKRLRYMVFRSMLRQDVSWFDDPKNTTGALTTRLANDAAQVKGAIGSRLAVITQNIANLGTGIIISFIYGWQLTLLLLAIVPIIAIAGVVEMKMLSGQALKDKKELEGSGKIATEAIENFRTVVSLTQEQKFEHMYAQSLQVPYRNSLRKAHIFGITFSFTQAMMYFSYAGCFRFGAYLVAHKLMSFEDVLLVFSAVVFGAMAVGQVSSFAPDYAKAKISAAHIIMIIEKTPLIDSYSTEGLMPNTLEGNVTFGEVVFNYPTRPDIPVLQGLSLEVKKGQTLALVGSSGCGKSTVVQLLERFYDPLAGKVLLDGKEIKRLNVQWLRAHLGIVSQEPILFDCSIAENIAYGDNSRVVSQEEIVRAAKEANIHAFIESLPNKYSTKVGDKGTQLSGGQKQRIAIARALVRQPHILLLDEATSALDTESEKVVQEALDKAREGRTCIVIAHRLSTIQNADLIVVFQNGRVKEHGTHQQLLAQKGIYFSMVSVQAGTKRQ
Sequence of P-glycoprotein (P-gp, rat Mdr1a) (Q6PSM0 1-1272): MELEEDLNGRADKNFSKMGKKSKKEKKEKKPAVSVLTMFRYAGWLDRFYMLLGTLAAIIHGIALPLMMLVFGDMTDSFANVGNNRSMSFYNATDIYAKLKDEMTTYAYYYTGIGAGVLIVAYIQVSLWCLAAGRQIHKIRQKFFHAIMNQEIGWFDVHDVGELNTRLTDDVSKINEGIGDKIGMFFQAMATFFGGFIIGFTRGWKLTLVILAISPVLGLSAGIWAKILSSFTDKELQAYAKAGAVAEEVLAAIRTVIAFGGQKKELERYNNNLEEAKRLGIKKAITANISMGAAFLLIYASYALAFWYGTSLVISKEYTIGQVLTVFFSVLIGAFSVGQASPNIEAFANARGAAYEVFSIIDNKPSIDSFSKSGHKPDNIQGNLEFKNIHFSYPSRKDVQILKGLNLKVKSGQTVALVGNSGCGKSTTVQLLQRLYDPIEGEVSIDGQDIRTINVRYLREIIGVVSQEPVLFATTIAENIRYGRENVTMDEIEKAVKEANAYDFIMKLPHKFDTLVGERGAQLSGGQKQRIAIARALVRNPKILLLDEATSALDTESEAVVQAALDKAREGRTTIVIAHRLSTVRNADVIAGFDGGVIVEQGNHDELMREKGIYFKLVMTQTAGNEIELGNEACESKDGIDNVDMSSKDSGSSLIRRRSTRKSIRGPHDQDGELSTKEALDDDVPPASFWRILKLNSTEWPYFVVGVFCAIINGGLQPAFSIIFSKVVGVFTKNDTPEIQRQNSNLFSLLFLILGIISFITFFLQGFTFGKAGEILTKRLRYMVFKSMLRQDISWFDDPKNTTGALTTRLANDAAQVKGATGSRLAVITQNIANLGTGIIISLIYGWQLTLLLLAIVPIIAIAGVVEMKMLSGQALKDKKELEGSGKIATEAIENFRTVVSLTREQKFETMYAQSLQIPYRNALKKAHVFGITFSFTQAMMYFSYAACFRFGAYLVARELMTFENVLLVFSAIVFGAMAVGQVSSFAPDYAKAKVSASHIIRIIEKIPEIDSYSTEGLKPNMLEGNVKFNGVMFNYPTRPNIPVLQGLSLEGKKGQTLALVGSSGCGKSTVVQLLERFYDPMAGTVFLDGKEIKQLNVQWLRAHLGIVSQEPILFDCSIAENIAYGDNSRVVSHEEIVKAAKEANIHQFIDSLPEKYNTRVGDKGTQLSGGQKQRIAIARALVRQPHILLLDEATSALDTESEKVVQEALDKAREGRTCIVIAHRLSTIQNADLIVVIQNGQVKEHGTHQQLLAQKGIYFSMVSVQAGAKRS

Structure (SMILES) | Ki [1, 5] [nM] | Ki [1, 6] [nM] | efflux ratio at 1 μM [2] | efflux ratio at 1 μM [3] | Ki [4, 7] [nM] | Ki [4, 8] [nM]
CC(C)[C@@H](NC(=O)c1cc(=O)[nH]c(N2CC[C@H](F)C2)n1)c1ccc(SC(F)(F)F)c(F)c1 [Example 165, 2-[(3S)-3-fluoropyrrolidin-1-yl]-N-[(1R)-1-{3-fluoro-4-[(trifluoromethyl)sulfanyl]phenyl}-2-methylpropyl]-6-oxo-1,6-dihydropyrimidine-4-carboxamide] | 0.33 | 0.5 | 3.6 | 20.1 | 0.45 | 
C[C@@H](NC(=O)c1cc(=O)[nH]c(N)n1)c1ccc(SC(F)(F)F)cc1 [Example 145, 2-amino-6-oxo-N-[(1R)-1-{4-[(trifluoromethyl)sulfanyl]phenyl}ethyl]-1,6-dihydro-pyrimidine-4-carboxamide] | 35 |  | 3.2 | 28.9 |  | 23
CC(C)[C@@H](NC(=O)c1cc(=O)[nH]c(N(C)C)n1)c1ccc(C2CC2)c(F)c1 [Example 41, N-[(1R)-1-(4-cyclopropyl-3-fluorophenyl)-2-methylpropyl]-2-(dimethylamino)-6-oxo-1,6-dihydropyrimidine-4-carboxamide] |  | 0.31 | 0.4 | 3.6 | 0.36 | 
CC(C)[C@@H](NC(=O)c1cc(=O)[nH]c(N2CC[C@@H](F)C2)n1)c1ccc(OC(F)(F)F)c(F)c1 [Example 163, 2-[(3R)-3-fluoropyrrolidin-1-yl]-N-{(R)-1-[3-fluoro-4-(trifluoromethoxy)phenyl]-2-methylpropyl}-6-oxo-1,6-dihydropyrimidine-4-carboxamide] | 4.1 | 5 | 0.7 | 15.8 | 4.2 | 
CN(C)c1nc(C(=O)N[C@@H](c2ccc(C3CC3)cc2)C2(C)CC2)cc(=O)[nH]1 [Example 71, N-[(R)-(4-cyclopropylphenyl)(1-methylcyclopropyl)methyl]-2-(dimethylamino)-6-oxo-1,6-dihydropyrimidine-4-carboxamide] |  | 0.23 | 0.3 | 4.8 | 0.21 | 
CC(C)[C@@H](NC(=O)c1cc(=O)[nH]c(N(C)C)n1)c1ccc(OC(F)(F)F)cc1 [Example 91, 2-(dimethylamino)-N-{(1R)-2-methyl-1-[4-(trifluoromethoxy)phenyl]propyl}-6-oxo-1,6-dihydropyrimidine-4-carboxamide] | 0.64 |  | 0.6 | 5.1 |  | 0.19
CC[C@@H](NC(=O)c1cc(=O)[nH]c(N(C)C)n1)c1ccc(SC(F)(F)F)c(F)c1 [Example 98, 2-(dimethylamino)-N-[(1R)-1-{3-fluoro-4-[(trifluoromethyl)sulfanyl]phenyl}propyl]-6-oxo-1,6-dihydropyrimidine-4-carboxamide] | 0.54 |  | 0.4 | 3 |  | 0.23
CN(C)c1nc(C(=O)NC(c2ccc(S(F)(F)(F)(F)F)cc2F)C(C)(C)C)cc(=O)[nH]1 (single isomer, unassigned) [Example 128, (R)- or (S)-2-(dimethylamino)-N-{1-[2-fluoro-4-(pentafluoro-λ^6-sulfanyl)phenyl]-2,2-dimethylpropyl}-6-oxo-1,6-dihydropyrimidine-4-carboxamide] |  | 0.22 | 1.4 | 4.8 | 0.15 | 
CN(C)c1nc(C(=O)N[C@@H](c2ccc(OC(F)(F)F)cc2)C2CC2)cc(=O)[nH]1 [Example 107, N-{(1R)-cyclopropyl[4-(trifluoromethoxy)phenyl]methyl}-2-(dimethylamino)-6-oxo-1,6-dihydropyrimidine-4-carboxamide] | 0.93 | 2.2 | 0.4 | 2.2 | 1.7 | 
CC(C)[C@@H](NC(=O)c1cc(=O)[nH]c(N(C)C)n1)c1ccc(C(C)(F)F)c(F)c1 [Example 77, N-{(1R)-1-[4-(1,1-difluoroethyl)-3-fluorophenyl]-2-methylpropyl}-2-(dimethylamino)-6-oxo-1,6-dihydropyrimidine-4-carboxamide] |  | 0.21 | 1.1 | 7.3 | 0.19 | 
CC(C)[C@@H](NC(=O)c1cc(=O)[nH]c(N)n1)c1ccc(OC(F)(F)F)c(F)c1 [Example 152, 2-amino-N-{(1R)-1-[3-fluoro-4-(trifluoromethoxy)phenyl]-2-methylpropyl}-6-oxo-1,6-dihydropyrimidine-4-carboxamide] | 33 |  | 11.6 | 29.2 |  | 19
CN(C)c1nc(C(=O)N[C@@H](c2ccc(C3CC3)c(F)c2)C2CC2)cc(=O)[nH]1 [Example 56, N-[(R)-cyclopropyl(4-cyclopropyl-3-fluorophenyl)methyl]-2-(dimethylamino)-6-oxo-1,6-dihydropyrimidine-4-carboxamide] |  | 0.71 | 0.3 | 1.7 | 0.51 | 
C[C@@H](NC(=O)c1cc(=O)[nH]c(N2Cc3cncnc3C2)n1)c1ccc(C(F)(F)F)cc1 [Example 161, 2-(5,7-dihydro-6H-pyrrolo[3,4-d]pyrimidin-6-yl)-6-oxo-N-{(1R)-1-[4-(trifluoromethyl)phenyl]ethyl}-1,6-dihydropyrimidine-4-carboxamide] | 5.1 |  | 14.6 | 23.7 |  | 5
CN(C)c1nc(C(=O)N[C@@H](c2ccc(C(F)(F)F)cc2)C2(C)CC2)cc(=O)[nH]1 [Example 43, 2-(dimethylamino)-N-{(R)-(1-methylcyclopropyl)[4-(trifluoromethyl)phenyl]methyl}-6-oxo-1,6-dihydropyrimidine-4-carboxamide] |  | 0.23 | 0.7 | 2.3 | 0.32 | 
O=C(N[C@@H](c1ccc(C2CC2)cc1)C1CC1)c1cc(=O)[nH]c(N2CCCC2)n1 [Example 113, N-[(R)-cyclopropyl(4-cyclopropylphenyl)methyl]-6-oxo-2-pyrrolidine-1-yl-1,6-dihydropyrimidine-4-carboxamide] | 0.36 | 0.65 | 0.4 | 3.9 | 0.63 | 
CN(C)c1nc(C(=O)NC2(c3ccc(C(F)(F)F)c(F)c3)CC2)cc(=O)[nH]1 [Example 94, 2-(dimethylamino)-N-{1-[3-fluoro-4-(trifluoromethyl)phenyl]cyclopropyl}-6-oxo-1,6-dihydropyrimidine-4-carboxamide] | 1.2 | 0.8 | 0.5 | 2.6 | 0.96 | 0.9
CC(C)[C@@H](NC(=O)c1cc(=O)[nH]c(N(C)C)n1)c1ccc(C(F)F)cc1 [Example 63, N-{(1R)-1-[4-(difluoromethyl)phenyl]-2-methylpropyl}-2-(dimethylamino)-6-oxo-1,6-dihydropyrimidine-4-carboxamide] |  |  | 1.7 | 10.2 | 1.9 | 
CC(C)(C)[C@@H](NC(=O)c1cc(=O)[nH]c(N)n1)c1ccc(C(F)(F)F)cc1 [Example 157, 2-amino-N-{(1R)-2,2-dimethyl-1-[4-(trifluoromethyl)phenyl]propyl}-6-oxo-1,6-dihydropyrimidine-4-carboxamide] |  |  | 13.9 | 34 | 6.3 | 
